Article PMC11078746 (Nature, 2024)
“And” between values parts separate entries of the source, which are not always exact repeats. Equal entries are not always repeated. Where two headings read alike, the source gives them in different places.

Columns and labels:
IGROV1 xenograft = assay: MSI xenograft model efficacy; assay type: in vivo, mouse; conditions: IGROV1, Ovarian carcinoma; 60 or 120 mg/kg
Description: (§1) All animal studies were conducted in accordance with ethics and procedures covered by permit BS-2275 and BS-1975 issued by the Kantonales Veterinäramt Basel-Stadt and in strict adherence to guidelines of the Eidgenössisches Tierschutzgesetz and the Eidgenössische Tierschutzverordnung, Switzerland. All animal studies were approved by the internal ethics committee. All animals had access to food and water ad libitum and were identified with transponders. They were housed in a specific-pathogen-free facility in IVC racks under a 12 h–12 h light–dark cycle. To establish cell-line-derived xenograft models, 6–7-week-old female athymic nude (Crl:NU(NCr)-Foxn1^nu) or SCID-BEIGE (CB17.Cg-PrkdcscidLystbg-J/Crl) mice from Charles River were engrafted subcutaneously with 5 million tumour cells in HBSS (H6648, Sigma-Aldrich). For SNU-407, Lovo, IM95, RL95.2, Ishikawa and IGROV-1, the cells were concentrated in 50% Matrigel (354234, Corning). Patient-derived xenografts were induced and expanded by transplantation as previously described. […] For the efficacy experiment, mice were randomized into groups (n = 5–6) for a mean tumour size of 100–150 mm^3. […] Blood samples were collected on day 7 and 91. […] Tumour responses are reported with the measures of tumour volumes from the treatment start. […] Animals were randomized (n = 3) and tumour samples were collected at 0, 1, 4, 8 and 24 h on the first day and then collected 4 h after the last treatment on day 3, 8, 10, 14 (including a 24 h timepoint), 17 and 21. Tumours were excised, weighed, either frozen in liquid nitrogen and cryogenic dry pulverized with the CryoPrep system (model CP-02, Covaris) or processed to FFPE after fixation. […] On day 12, blood samples were collected for PK analysis. On the last day (3 h after the last treatment), tumours were excised, weighed, frozen in liquid nitrogen and cryogenic dry pulverized for PD analysis.

SNU407 xenograft = assay: MSI xenograft model efficacy; assay type: in vivo, mouse; conditions: SNU407, colorectal carcinoma; 60 or 120 mg/kg
Description: as §1

23132/87 xenograft = assay: MSI xenograft model efficacy; assay type: in vivo, mouse; conditions: 23132/87, Gastric carcinoma; 60 or 120 mg/kg
Description: as §1

5148-HX xenograft = assay: MSI xenograft model efficacy; assay type: in vivo, mouse; conditions: Gastric carcinoma, 60 or 120 mg/kg
Description: as §1

RKO xenograft = assay: MSI xenograft model efficacy; assay type: in vivo, mouse; conditions: colorectal carcinoma, 60 or 120 mg/kg
Description: as §1

HEC6 xenograft = assay: MSI xenograft model efficacy; assay type: in vivo, mouse; conditions: HEC6, Endometrial carcinoma; 60 or 120 mg/kg
Description: as §1

[1] = system: HCT116 TP53 null xenograft; assay: MSI xenograft model efficacy; assay type: in vivo, mouse; conditions: for Mean TVol / Tumour volume (TVol): HCT116 p53 null, 60 mpk; for Tumour volume (TVol): single mouse, 60 mg/kg
Description: as §1

TOV21G xenograft = assay: MSI xenograft model efficacy; assay type: in vivo, mouse; conditions: Ovarian carcinoma, 60 or 120 mg/kg
Description: as §1

OVK18 xenograft = assay: MSI xenograft model efficacy; assay type: in vivo, mouse; conditions: OVK18, Ovarian carcinoma; 60 or 120 mg/kg
Description: as §1

2861-HX xenograft = assay: MSI xenograft model efficacy; assay type: in vivo, mouse; conditions: colorectal carcinoma, 60 or 120 mg/kg
Description: as §1

LoVo xenograft = assay: MSI xenograft model efficacy; assay type: in vivo, mouse; conditions: colorectal carcinoma, 60 or 120 mg/kg
Description: as §1

IM95 xenograft = assay: MSI xenograft model efficacy; assay type: in vivo, mouse; conditions: IM95, Gastric carcinoma; 60 or 120 mg/kg
Description: as §1

Ishikawa xenograft = assay: MSI xenograft model efficacy; assay type: in vivo, mouse; conditions: Endometrial carcinoma, 60 or 120 mg/kg
Description: as §1

RL95.2 xenograft = assay: MSI xenograft model efficacy; assay type: in vivo, mouse; conditions: RL95.2, Endometrial carcinoma; 60 or 120 mg/kg
Description: as §1

JHUEM2 xenograft = assay: MSI xenograft model efficacy; assay type: in vivo, mouse; conditions: JHUEM2, Endometrial carcinoma; 60 or 120 mg/kg
Description: as §1

1119-HX xenograft = assay: MSI xenograft model efficacy; assay type: in vivo, mouse; conditions: colorectal carcinoma, 60 or 120 mg/kg
Description: as §1

LS411N xenograft = assay: MSI xenograft model efficacy; assay type: in vivo, mouse; conditions: colorectal carcinoma, 60 or 120 mg/kg
Description: as §1

3205-HX xenograft = assay: MSI xenograft model efficacy; assay type: in vivo, mouse; conditions: colorectal carcinoma, 60 or 120 mg/kg
Description: as §1

MDCK LE permeability = assay type: in vitro ADME, canine; conditions: dog
LS411N = assay: 4 day proliferation assay (CellTiter-Glo)
HEC251 = assay: 4 day proliferation assay (CellTiter-Glo); conditions: Homo sapiens, HEC-251, 96 h, read-out: 4 day assay GI50
SNUC5 = assay: CFA 10-14 day clonogenic assay; assay type: cell-based; conditions: Homo sapiens

With `CCc1c(N2CCN(C(=O)c3ncnc(C)c3O)CC2)c(=O)n2nc(C3=CCOCC3)nc2n1CC(=O)Nc1ccc(C(F)(F)F)cc1Cl` [HRO761] the Best average response (IGROV1 xenograft) was -38, the Best average response (SNU407 xenograft) was -40 and the Best average response (23132/87 xenograft) was 200. It also gave a Best average response (5148-HX xenograft) of -36, a Best average response (RKO xenograft) of 300 and a Best average response (HEC6 xenograft) of -75. The Best average response ([1]; HCT116 P53 null, colorectal carcinoma, 60 or 120 mg/kg) was -100, the “Mean TVol” value ([1]; day 0) was 151.89 mm3 and the “Tumour volume (TVol)” value ([1]; day 0) was 114.28 mm3 and 172.75 mm3 and 98.96 mm3 and 162.60 mm3 and 112.69 mm3 and 250.04 mm3. The “Mean TVol” value ([1]; day 3) was 243.48 mm3, the “Tumour volume (TVol)” value ([1]; day 3) was 162.58 mm3 and 332.14 mm3 and 148.24 mm3 and 251.18 mm3 and 212.27 mm3 and 354.49 mm3 and the “Mean TVol” value ([1]; day 7) was 201.27 mm3. The “Tumour volume (TVol)” value ([1]; day 7) was 115.63 mm3 and 278.64 mm3 and 112.69 mm3 and 190.13 mm3, the “Mean TVol” value ([1]; day 10) was 167.32 mm3 and the “Mean TVol” value ([1]; day 14) was 78.55 mm3. For the same compound, the “Tumour volume (TVol)” value ([1]; day 14) was 57.94 mm3 and 66.94 mm3 and 44.25 mm3 and 61.17 mm3 and 71.26 mm3 and 169.76 mm3, the “Mean TVol” value ([1]; day 17) was 56.92 mm3 and the “Tumour volume (TVol)” value ([1]; day 17) was 38.70 mm3 and 22.79 mm3 and 27.88 mm3 and 45.55 mm3 and 49.32 mm3 and 157.29 mm3. The “Mean TVol” value ([1]; day 21) was 29.14 mm3, the “Tumour volume (TVol)” value ([1]; day 21) was 20.42 mm3 and 11.20 mm3 and 10.29 mm3 and 21.47 mm3 and 18.24 mm3 and 93.23 mm3 and the “Mean TVol” value ([1]; day 24) was 15.47 mm3. The “Tumour volume (TVol)” value ([1]; day 24) was 13.85 mm3 and 5.24 mm3 and 5.28 mm3 and 4.25 mm3 and 8.53 mm3 and 55.64 mm3, the “Mean TVol” value ([1]; day 29) was 6.87 mm3 and the “Tumour volume (TVol)” value ([1]; day 29) was 2.43 mm3 and 4.29 mm3 and 1.21 mm3 and 1.27 mm3 and 2.76 mm3 and 29.26 mm3. For the same compound, the “Mean TVol” value ([1]; day 31) was 4.02 mm3, the “Tumour volume (TVol)” value ([1]; day 31) was 2.71 mm3 and 2.05 mm3 and 0.39 mm3 and 0.99 mm3 and 0.92 mm3 and 17.07 mm3 and the “Mean TVol” value ([1]; day 35) was 3.16 mm3. The “Tumour volume (TVol)” value ([1]; day 35) was 1.81 mm3 and 0.00 mm3 (2×) and 0.17 mm3 and 0.75 mm3 and 16.24 mm3, the “Mean TVol” value ([1]; day 38) was 4.17 mm3 and the “Tumour volume (TVol)” value ([1]; day 38) was 0.58 mm3 and 0.00 mm3 (3×) and 1.01 mm3 and 23.40 mm3. The “Mean TVol” value ([1]; day 42) was 4.73 mm3, the “Tumour volume (TVol)” value ([1]; day 42) was 0.90 mm3 and 0.00 mm3 (4×) and 27.46 mm3 and the “Mean TVol” value ([1]; day 45) was 6.85 mm3. For the same compound, the “Tumour volume (TVol)” value ([1]; day 45) was 1.68 mm3 and 0.00 mm3 (4×) and 39.40 mm3, the “Mean TVol” value ([1]; day 49) was 7.67 mm3 and the “Tumour volume (TVol)” value ([1]; day 49) was 0.00 mm3 (5×) and 46.01 mm3. The “Mean TVol” value ([1]; day 53) was 9.89 mm3, the “Tumour volume (TVol)” value ([1]; day 53) was 0.00 mm3 (5×) and 59.36 mm3 and the “Mean TVol” value ([1]; day 56) was 14.65 mm3. The “Tumour volume (TVol)” value ([1]; day 56) was 0.00 mm3 (5×) and 87.90 mm3, the “Mean TVol” value ([1]; day 60) was 17.60 mm3 and the “Tumour volume (TVol)” value ([1]; day 60) was 0.63 mm3 and 0.00 mm3 (4×) and 104.97 mm3. The Best average response (TOV21G xenograft) was 190, the Best average response (OVK18 xenograft) was 500 and the Best average response (2861-HX xenograft) was -70. For the same compound, the Best average response (LoVo xenograft) was -20, the Best average response (IM95 xenograft) was -90 and the Best average response (Ishikawa xenograft) was -70. The Best average response (RL95.2 xenograft) was -66, the Best average response (JHUEM2 xenograft) was 400 and the Best average response (1119-HX xenograft) was -14. It also gave a Best average response (LS411N xenograft) of -100, a Best average response (3205-HX xenograft) of 400 and a Papp A→B (MDCK LE permeability; A-B) of 30 ×10⁻⁶ cm/s. For the same compound, the Papp (MDCK LE permeability; Fig. 1b) was 31 ×10⁻⁶ cm/s, the GI50 (LS411N; Homo sapiens, LS-411N, 96 h, read-out: 4 day assay GI50, LS411N) was 147 nM and the GI50 (LS411N; read-out: 4 day assay GI50, LS411N) was 257 nM. It also gave a GI50 (HEC251) of no less than 10000 nM and a GI50 (SNUC5) of 418 nM.
